Counter-ions that a name gives are not always drawn.
target: T1, recombinant GST-GK (Homo sapiens, UniProt P35557); test: primary enzyme assay: glucokinase activation in vitro (thio-NADH coupled assay); format: biochemical; details: concentration of compound that produces a 50% increase in the activity of GK vs DMSO control; 10 mM glucose, 25° C.
T1 sequence (P35557 1-465): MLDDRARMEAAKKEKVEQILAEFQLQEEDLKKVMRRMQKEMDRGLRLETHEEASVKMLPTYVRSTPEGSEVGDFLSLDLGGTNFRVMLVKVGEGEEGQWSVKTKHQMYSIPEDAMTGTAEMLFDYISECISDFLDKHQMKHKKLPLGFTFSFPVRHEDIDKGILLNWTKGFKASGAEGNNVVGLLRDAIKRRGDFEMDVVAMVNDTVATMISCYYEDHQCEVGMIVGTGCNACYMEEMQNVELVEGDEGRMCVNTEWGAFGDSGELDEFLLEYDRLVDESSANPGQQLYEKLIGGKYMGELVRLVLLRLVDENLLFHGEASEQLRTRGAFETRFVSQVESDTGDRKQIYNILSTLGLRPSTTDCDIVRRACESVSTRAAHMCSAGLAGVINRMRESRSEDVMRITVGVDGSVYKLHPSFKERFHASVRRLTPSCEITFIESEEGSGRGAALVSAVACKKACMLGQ
Source text: For example, the glucokinase activation in vitro may be determined by measuring the activation of recombinant GST-GK by a compound of the present invention in the absence or the presence of GKRP, a 68,000 Da protein inhibitor of GK. In these assays, formation of glucose-6-phosphate is coupled directly to the formation of thio-NADH. GST-GK catalyzes the reaction of glucose and Mg-ATP to produce glucose-6-phosphate and ADP. Glucose-6-phosphate dehydrogenase (G6PDH) reduces thionicotinamide (thio-NAD) to thio-NADH. The assay measures the formation of thio-NADH at […].
The basic GK assay components are as follows: 25 mM HEPES (pH 7.1), 25 mM KCl, 2.5 mM MgCl2, 1 mM ATP (Sigma A-5394), 1 mM DTT, 1 mM thio-NAD (Sigma T-7375), 80 units/mL G6PDH (Sigma G-5885), 10 mM glucose and 110 nM GST-GK. For assessing reversal of GK inhibition by GKRP, 20 μM Fructose-6-phosphate (F-6-P) and 370 nM recombinant GKRP are added to these assay components. Fructose-1-phosphate (F-1-P) at 1 μM is used as a control in the GK/GKRP assay. F-1-P reverses inhibition of GST-GK by GKRP.
The assay is done in standard, 96-well, round-bottom plates (Corning) and the total assay volume is 25 μL. Test compounds are serially diluted into 100% DMSO and 0.5 μL of diluted compound in 100% DMSO is added to the assay plate. Assay reagents (24.5 μL) are added using a Zymark robotic platform. Buffer, containing HEPES, MgCl2, KCl, thio-NAD, G6PDH, glucose and GST-GK, are added (5 μL) using the Zymark 8-channel hand pipet. For the GK/GKRP assay, GKRP and F-6-P are also included. The reaction is then initiated by adding 19.5 μL of buffer containing HEPES, MgCl2, KCl, DTT and ATP using the Zymark Reagent Addition Station/Reagent Addition Module. The plates are read kinetically over 10 min at 25° C. using a SpectraMax Plus microplate spectrophotometer (Molecular Devices, Sunnyvale, Calif.) to monitor the increase in optical density at 405 nm. The GK activity in wells containing test compounds is compared with activity in DMSO control wells. The concentration of compound that produces a 50% increase in the activity of GK is calculated and expressed as EC50.

| Structure (SMILES) | EC50 [nM] |
| --- | --- |
| CN1CCN(S(=O)(=O)c2ccc(C(CC3CCCC3)C(=O)Nc3nccc4ccccc34)cc2)CC1 (stereo not shown) [Example 1, 3-Cyclopentyl-N-isoquinolin-1-yl-2-[4-(4-methyl-piperazine-1-sulfonyl)-phenyl]-propionamide hydrochloride] | 50000 |
| COc1ccc2nc(NC(=O)C(CC3CCCC3)c3ccc(S(=O)(=O)N4CCC(C(=O)O)CC4)cc3)sc2n1 (stereo not shown) [Example 3, 1-{4-[2-Cyclopentyl-1-(5-methoxy-thiazolo[5,4-b]pyridin-2-ylcarbamoyl)-ethyl]-benzenesulfonyl}-piperidine-4-carboxylic acid] | 7100 |
| COc1ccc2nc(NC(=O)C(CC3CCCC3)c3ccc(S(=O)(=O)N4CCNCC4C(=O)O)cc3)sc2n1 (stereo not shown) [Example 4-94, 1-{4-[2-Cyclopentyl-1-(5-methoxy-thiazolo[5,4-b]pyridin-2-ylcarbamoyl)-ethyl]-benzenesulfonyl}-piperazine-2-carboxylic acid] | 9300 |
| CN1CCN(S(=O)(=O)c2ccc(C(CC3CCCC3)C(=O)Nc3nccc4ccccc34)cc2)CC1 (stereo not shown) [Example 4-1, 3-Cyclopentyl-N-isoquinolin-1-yl-2-[4-(4-methyl-piperazine-1-sulfonyl)-phenyl]-propionamide] | 1100 |
| CCN(CC)S(=O)(=O)c1ccc(C(CC2CCCC2)C(=O)Nc2nccs2)cc1 (stereo not shown) [Example 4-15, 3-Cyclopentyl-2-(4-diethylsulfamoyl-phenyl)-N-thiazol-2-yl-propionamide] | 60 |
| CN1CCN(S(=O)(=O)c2ccc(C(CC3CCCC3)C(=O)Nc3nc4ccc(Br)nc4s3)cc2)CC1 (stereo not shown) [Example 4-22, N-(5-Bromo-thiazolo[5,4-b]pyridin-2-yl)-3-cyclopentyl-2-[4-(4-methyl-piperazine-1-sulfonyl)-phenyl]-propionamide] | 390 |
| CN1CCN(S(=O)(=O)c2ccc(C(CC3CCCC3)C(=O)Nc3ccc(C(=O)O)cn3)cc2)CC1 (stereo not shown) [Example 4-23, 6-{3-Cyclopentyl-2-[4-(4-methyl-piperazine-1-sulfonyl)-phenyl]-propionylamino}-nicotinic acid] | 1400 |
| COCCN(C)C(=O)c1ccc2nc(NC(=O)[C@H](CC3CCCC3)c3ccc(S(=O)(=O)N4CCN(C)CC4)cc3)sc2n1 [Example 4-52, 2-{(R)-3-Cyclopentyl-2-[4-(4-methyl-piperazine-1-sulfonyl)-phenyl]-propionylamino}-thiazolo[5,4-b]pyridine-5-carboxylic acid (2-methoxy-ethyl)-methyl-amide] | 2100 |
| CN1CCN(S(=O)(=O)c2ccc(C(CC3CCCC3)C(=O)Nc3nc4ccc(-c5ccccc5)nc4s3)cc2)CC1 (stereo not shown) [Example 4-44, 3-Cyclopentyl-2-[4-(4-methyl-piperazine-1-sulfonyl)-phenyl]-N-(5-phenyl-thiazolo[5,4-b]pyridin-2-yl)-propionamide] | 260 |
| CCN(CC)S(=O)(=O)c1ccc(C(CC2CCCC2)C(=O)Nc2nc3c(s2)CN(C(=O)OC(C)(C)C)CC3)cc1 (stereo not shown) [Example 4-8, 2-[3-Cyclopentyl-2-(4-diethylsulfamoyl-phenyl)-propionylamino]-6,7-dihydro-4H-thiazolo[5,4-c]pyridine-5-carboxylic acid tert-butyl ester] | 95 |
